The record followed here is ChEMBL document CHEMBL5465560, “Selectivity Literature for EUbOPEN Chemogenomic Library” (2024).

Test [1] addresses T1, Ephrin type-B receptor 2 (Homo sapiens) (UniProt P29323).
T1 sequence (whole entry): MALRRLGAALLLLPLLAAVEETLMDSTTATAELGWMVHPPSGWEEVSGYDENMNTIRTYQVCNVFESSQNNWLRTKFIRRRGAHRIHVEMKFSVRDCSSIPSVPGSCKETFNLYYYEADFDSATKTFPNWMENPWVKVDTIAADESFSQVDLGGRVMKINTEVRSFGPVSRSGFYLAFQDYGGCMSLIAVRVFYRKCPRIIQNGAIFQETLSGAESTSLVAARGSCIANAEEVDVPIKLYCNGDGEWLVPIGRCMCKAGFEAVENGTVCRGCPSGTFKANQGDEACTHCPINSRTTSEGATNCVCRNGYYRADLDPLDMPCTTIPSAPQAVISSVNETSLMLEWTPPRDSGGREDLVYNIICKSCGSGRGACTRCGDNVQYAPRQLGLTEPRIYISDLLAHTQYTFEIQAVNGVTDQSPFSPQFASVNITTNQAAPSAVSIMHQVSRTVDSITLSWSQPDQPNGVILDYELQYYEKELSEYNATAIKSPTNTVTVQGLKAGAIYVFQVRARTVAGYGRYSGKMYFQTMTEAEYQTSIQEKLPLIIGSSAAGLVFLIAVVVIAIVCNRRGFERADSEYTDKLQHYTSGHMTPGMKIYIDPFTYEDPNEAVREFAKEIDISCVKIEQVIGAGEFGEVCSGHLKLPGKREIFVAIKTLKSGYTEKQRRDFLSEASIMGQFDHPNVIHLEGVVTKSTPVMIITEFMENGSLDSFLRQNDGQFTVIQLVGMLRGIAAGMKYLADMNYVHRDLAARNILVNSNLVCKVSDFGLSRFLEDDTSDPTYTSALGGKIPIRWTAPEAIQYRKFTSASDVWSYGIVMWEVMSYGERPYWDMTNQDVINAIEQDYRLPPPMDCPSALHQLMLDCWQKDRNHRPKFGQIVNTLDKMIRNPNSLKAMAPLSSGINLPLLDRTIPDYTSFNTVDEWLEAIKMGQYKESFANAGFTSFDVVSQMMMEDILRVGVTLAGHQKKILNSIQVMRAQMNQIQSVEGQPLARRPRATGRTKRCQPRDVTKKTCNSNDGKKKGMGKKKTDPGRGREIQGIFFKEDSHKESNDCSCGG
In words: Selectivity interaction (Ambit KINOMEscan and KiNATiv profiling in Jurkat cells) EUB0000090b EPHB2. It counts as cell-based. As to conditions: at 1 µM.

The target of test [2] is Serine/threonine-protein kinase MRCK alpha (Homo sapiens) (UniProt Q5VT25). In words: Selectivity interaction (KinomeScan (DiscoverX)) EUB0000092b CDC42BPA. As to conditions: at 10 µM.
The target of test [3] is T2, NUAK family SNF1-like kinase 2 (Homo sapiens) (UniProt Q9H093).
T2 sequence (whole entry): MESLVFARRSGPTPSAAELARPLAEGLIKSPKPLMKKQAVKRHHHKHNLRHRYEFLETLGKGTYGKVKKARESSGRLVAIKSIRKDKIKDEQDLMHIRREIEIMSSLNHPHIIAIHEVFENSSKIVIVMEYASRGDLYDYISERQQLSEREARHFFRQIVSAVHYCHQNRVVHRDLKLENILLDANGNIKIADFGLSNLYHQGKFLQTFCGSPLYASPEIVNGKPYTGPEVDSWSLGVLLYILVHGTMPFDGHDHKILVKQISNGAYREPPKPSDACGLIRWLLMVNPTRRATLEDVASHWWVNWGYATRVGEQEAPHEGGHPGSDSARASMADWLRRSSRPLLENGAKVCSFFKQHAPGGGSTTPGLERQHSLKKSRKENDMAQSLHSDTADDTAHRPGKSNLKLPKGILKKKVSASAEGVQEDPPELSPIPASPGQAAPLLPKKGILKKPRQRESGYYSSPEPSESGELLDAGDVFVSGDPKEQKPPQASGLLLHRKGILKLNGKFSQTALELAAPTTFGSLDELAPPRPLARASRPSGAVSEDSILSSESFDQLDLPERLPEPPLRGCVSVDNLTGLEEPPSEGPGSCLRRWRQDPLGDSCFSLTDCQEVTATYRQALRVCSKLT
The test is described as follows: Selectivity interaction (KinomeScan (DiscoverX)) EUB0000092b NUAK2. As to conditions: at 10 µM.

Test [4] deals with RAF proto-oncogene serine/threonine-protein kinase (Homo sapiens) (UniProt P04049). The test is described as follows: Selectivity interaction (Kinase panel (Eurofins)) EUB0001564a RAF1. Particulars: at 1 µM.
The target is the same in test [5]. In words: Selectivity interaction (KinomeScan (DiscoverX)) EUB0000695a RAF1. Particulars: at 100 nM.
The target of test [6] is Nucleosome-remodeling factor subunit BPTF (Homo sapiens, UniProt Q12830). The test is described as follows: Selectivity interaction (Bromodomain panel (DSF asssay)) EUB0000270b BPTF.
The target in test [7] is Tyrosine-protein kinase Fer (Homo sapiens) (UniProt P16591). The test is described as follows: Selectivity interaction (KinomeScan (DiscoverX)) EUB0000666a FER. Particulars: at 10 µM.
In test [8] the target is Histone-lysine N-methyltransferase ASH1L (Homo sapiens) (UniProt Q9NR48). In words: Selectivity interaction (Methyltransferase screen (radiometric assays, panel of 8 PRMTs, 21 protein lysine methyltransferases, 3 DNA methyltransferases, and one RNA methyltransferase)) EUB0000272b ASH1L.
The target in test [9] is Tyrosine-protein kinase JAK1 (Homo sapiens, UniProt P23458). The test is described as follows: Selectivity interaction (ActivX KiNativ screen (kinase selectivity in THP-1 cell lysates)) EUB0000639a JAK1. As to conditions: lysate, at 5 µM. It counts as subcellular.
The target of test [10] is Phosphatidylinositol 4-phosphate 5-kinase type-1 alpha (Homo sapiens) (UniProt Q99755). The test is described as follows: Selectivity interaction (KinomeScan (DiscoverX)) EUB0001619a PIP5K1A. Particulars: at 1 µM.
In test [11] the target is Cyclin-dependent kinase 8 (Homo sapiens, UniProt P49336). The test is described as follows: Selectivity interaction (KinomeScan (DiscoverX)) EUB0001619a CDK8. As to conditions: at 1 µM.
Test [12] deals with Protein kinase C eta type (Homo sapiens) (UniProt P24723). The test is described as follows: Selectivity interaction (KinomeScan (DiscoverX)) EUB0001619a PRKCH. Particulars: at 1 µM.
Protein kinase C eta type (Homo sapiens), sequence (P24723 whole entry): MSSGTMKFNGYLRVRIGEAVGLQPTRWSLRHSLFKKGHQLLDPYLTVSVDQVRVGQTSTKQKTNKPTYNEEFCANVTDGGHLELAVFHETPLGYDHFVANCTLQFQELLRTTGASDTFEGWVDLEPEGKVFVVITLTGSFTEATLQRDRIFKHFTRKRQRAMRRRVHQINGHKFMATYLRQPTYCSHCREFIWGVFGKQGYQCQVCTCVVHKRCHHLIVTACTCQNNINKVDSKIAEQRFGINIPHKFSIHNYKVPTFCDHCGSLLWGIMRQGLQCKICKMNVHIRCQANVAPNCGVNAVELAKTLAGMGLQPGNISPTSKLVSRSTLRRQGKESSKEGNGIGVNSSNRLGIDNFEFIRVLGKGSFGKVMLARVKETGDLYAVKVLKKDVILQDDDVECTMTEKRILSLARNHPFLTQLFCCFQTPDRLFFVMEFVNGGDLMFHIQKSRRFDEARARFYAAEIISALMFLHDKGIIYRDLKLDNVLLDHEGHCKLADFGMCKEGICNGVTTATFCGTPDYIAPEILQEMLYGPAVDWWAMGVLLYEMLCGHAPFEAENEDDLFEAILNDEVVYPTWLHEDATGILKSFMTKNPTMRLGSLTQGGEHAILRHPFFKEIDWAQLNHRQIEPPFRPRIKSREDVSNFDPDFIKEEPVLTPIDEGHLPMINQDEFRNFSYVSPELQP

RAF proto-oncogene serine/threonine-protein kinase (Homo sapiens), sequence (P04049 whole entry): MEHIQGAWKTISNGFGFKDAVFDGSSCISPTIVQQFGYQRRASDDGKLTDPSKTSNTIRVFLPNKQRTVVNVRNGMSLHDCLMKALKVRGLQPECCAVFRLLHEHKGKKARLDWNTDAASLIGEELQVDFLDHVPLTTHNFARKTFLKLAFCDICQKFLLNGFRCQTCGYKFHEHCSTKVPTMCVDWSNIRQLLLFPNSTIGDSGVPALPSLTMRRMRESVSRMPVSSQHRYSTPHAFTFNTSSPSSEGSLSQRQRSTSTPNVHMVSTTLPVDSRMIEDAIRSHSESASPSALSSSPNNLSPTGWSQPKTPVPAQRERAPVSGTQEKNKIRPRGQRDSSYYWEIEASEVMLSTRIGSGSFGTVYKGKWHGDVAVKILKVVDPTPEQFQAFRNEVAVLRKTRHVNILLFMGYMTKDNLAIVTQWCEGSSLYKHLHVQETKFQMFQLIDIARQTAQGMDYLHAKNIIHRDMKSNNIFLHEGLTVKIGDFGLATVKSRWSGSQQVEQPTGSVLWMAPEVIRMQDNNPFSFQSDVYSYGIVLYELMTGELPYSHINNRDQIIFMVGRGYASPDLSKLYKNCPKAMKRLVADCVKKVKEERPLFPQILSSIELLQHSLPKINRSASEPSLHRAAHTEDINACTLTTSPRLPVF
Phosphatidylinositol 4-phosphate 5-kinase type-1 alpha (Homo sapiens), sequence (Q99755 whole entry): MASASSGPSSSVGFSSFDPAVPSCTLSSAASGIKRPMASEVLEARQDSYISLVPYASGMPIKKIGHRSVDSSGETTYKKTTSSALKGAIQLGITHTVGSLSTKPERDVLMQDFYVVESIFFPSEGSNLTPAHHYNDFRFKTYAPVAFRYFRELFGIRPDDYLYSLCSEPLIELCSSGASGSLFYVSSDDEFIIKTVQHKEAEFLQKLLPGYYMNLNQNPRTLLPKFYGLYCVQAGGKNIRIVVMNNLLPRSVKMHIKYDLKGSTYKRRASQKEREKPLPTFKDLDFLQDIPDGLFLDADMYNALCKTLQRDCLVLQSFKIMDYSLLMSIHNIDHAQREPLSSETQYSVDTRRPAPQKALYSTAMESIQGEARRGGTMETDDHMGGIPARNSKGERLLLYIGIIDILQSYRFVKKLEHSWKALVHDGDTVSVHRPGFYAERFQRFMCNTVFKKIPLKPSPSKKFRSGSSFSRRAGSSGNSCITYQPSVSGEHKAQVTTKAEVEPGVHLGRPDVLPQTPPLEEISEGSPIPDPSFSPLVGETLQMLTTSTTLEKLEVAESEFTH
Serine/threonine-protein kinase MRCK alpha (Homo sapiens), sequence (Q5VT25 whole entry): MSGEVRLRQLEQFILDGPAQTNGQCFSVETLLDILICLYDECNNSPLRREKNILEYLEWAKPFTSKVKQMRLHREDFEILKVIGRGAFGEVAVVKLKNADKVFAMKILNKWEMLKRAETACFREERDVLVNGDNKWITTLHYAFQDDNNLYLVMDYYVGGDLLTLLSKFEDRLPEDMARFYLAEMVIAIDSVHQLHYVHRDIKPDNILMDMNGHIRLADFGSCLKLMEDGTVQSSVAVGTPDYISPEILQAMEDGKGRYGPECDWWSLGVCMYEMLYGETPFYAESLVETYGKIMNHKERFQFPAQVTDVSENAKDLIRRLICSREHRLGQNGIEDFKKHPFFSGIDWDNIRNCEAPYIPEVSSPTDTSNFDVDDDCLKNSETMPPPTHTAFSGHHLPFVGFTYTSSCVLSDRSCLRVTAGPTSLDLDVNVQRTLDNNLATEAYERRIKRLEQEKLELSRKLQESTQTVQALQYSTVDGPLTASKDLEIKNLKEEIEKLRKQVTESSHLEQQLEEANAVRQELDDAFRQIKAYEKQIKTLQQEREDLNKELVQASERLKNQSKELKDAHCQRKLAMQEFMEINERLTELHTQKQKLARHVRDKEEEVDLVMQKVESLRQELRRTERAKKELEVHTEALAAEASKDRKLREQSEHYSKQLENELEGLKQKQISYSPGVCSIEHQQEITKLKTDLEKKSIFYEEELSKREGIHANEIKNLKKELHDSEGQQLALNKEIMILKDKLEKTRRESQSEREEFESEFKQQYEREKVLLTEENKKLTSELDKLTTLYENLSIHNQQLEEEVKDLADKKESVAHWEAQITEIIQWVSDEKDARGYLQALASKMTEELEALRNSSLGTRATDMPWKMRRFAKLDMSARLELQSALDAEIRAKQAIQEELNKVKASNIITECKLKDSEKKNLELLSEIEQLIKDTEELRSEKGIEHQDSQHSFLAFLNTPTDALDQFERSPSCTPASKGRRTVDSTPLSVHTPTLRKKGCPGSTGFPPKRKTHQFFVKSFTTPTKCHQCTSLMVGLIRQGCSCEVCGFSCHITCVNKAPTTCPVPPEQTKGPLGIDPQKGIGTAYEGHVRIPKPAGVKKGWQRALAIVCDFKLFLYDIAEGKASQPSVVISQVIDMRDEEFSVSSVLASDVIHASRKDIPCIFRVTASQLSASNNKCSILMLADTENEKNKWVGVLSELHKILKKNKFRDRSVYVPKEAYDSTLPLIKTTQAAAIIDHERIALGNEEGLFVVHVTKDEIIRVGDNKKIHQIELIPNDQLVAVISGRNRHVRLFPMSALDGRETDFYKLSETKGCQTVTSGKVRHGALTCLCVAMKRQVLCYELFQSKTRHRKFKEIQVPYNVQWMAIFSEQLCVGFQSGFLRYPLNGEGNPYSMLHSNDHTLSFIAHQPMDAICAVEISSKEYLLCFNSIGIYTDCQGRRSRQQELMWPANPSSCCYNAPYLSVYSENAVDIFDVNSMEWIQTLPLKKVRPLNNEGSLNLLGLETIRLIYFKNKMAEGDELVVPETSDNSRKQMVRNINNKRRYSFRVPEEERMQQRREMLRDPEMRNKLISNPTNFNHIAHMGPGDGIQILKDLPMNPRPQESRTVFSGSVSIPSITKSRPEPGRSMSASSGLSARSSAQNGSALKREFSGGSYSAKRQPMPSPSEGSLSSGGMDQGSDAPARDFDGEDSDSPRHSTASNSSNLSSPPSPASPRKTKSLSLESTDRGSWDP
Tyrosine-protein kinase Fer (Homo sapiens), sequence (P16591 whole entry, looked up): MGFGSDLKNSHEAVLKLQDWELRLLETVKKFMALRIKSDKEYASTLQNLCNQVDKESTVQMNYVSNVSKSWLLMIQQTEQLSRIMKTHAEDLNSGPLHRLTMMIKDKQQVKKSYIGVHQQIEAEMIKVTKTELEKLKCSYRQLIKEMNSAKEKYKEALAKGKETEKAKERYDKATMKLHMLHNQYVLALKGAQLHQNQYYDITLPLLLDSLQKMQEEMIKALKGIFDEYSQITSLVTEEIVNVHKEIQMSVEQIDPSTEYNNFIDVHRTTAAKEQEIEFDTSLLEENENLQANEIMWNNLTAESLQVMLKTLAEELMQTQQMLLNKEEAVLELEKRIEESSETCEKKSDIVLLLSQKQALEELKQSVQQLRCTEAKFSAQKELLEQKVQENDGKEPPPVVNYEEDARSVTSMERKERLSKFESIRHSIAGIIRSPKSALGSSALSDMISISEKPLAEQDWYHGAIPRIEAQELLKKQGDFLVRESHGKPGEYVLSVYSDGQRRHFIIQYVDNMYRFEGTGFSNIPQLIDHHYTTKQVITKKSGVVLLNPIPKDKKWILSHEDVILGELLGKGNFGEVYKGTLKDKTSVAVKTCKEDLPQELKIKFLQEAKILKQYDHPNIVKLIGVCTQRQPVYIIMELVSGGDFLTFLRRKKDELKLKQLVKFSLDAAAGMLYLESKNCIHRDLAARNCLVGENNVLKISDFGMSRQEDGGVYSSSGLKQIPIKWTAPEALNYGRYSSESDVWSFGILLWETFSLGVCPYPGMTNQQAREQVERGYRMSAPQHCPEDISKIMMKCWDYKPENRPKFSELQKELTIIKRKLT
Cyclin-dependent kinase 8, sequence (P49336 whole entry): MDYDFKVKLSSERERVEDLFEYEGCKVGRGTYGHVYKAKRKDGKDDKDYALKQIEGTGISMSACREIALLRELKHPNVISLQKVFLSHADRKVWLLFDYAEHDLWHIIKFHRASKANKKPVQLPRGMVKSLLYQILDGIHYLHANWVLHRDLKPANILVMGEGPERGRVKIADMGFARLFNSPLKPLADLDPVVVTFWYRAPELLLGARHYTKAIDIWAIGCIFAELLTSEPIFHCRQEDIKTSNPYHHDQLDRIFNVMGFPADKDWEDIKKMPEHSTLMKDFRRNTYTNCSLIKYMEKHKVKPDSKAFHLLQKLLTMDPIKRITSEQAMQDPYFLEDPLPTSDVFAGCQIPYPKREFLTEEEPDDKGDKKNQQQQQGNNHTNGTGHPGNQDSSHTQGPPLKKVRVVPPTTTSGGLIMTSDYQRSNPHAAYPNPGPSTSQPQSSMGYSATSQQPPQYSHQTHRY

Take `CN(C)C/C=C/C(=O)Nc1ccc(C(=O)N2CCCC(Nc3ncc(Cl)c(-c4c[nH]c5ccccc45)n3)C2)cc1` (stereo not drawn): the % of control in test [1] amounted to 100%.

With `CCC(=O)N1CCN(c2ccc(-n3c(=O)ccc4cnc5ccc(-c6cnc7ccccc7c6)cc5c43)cc2C(F)(F)F)CC1`, the values for the % of control in test [2] and in test [3] were 0.7% and 100%, respectively.

`CC[C@@H](Nc1c(C#N)c(-c2ccc(-c3cccc(C)c3F)cc2)nc2cnccc12)C(=O)O` [BAY-091]: the % of inhibition in test [4] came out at 36%.

`Cc1cc(F)c(C(=O)Nc2cccc(-c3nncn3C(C)C)n2)cc1-n1cnc(C2CC2)c1`: the % of control in test [5] stood at 79%.

Regarding `Cc1cc(CN)cc(C)c1-c1ncn(C)c1-c1cncn1C`, in [6], the dTM was -2.3 K.

In test [7], `O=C(NOC[C@H](O)CO)c1ccc(F)c(F)c1Nc1ccc(I)cc1F` registered a % of control of 100%.

For the compound `Cc1cc(C)cc([C@H]2c3cc(C)ccc3NC(=O)CN2C(=O)c2ccc(Br)s2)c1`, the figures for the % of activity in test [8] (at 1 µM) and in [8] (at 10 µM) were 102% and 99.7%, respectively.

In the case of `CC[C@@H]1[C@H](F)C(=O)N[C@@H]1COc1nccc2cc(C(N)=O)c(OC)cc12` [ZIMLOVISERTIB], the % of inhibition in [9] was -5.3%.

On to `N#Cc1cccc(-c2c[nH]c3ncnc(N4CCOCC4)c23)c1`, for which the results for the % of control in test [10], in [11] and in test [12] were 20%, 80% and 41%, respectively.
